Results on twelve compounds are retold here after PubChem BioAssay (NCI).

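Cultured in 96-well plates, cells were exposed to test compound for 48 hours across five concentrations. TGI: total growth inhibition.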

Test systems include MOLT-4 leukemia; SF-268 CNS; HS 578T breast; 786-0 renal; A498 renal; SF-295 CNS; SN12C renal; NCI-H226 lung; COLO 205 colon; UACC-257 melanoma; HCC-2998 colon.
Experiment in all cases: NCI-60 cell line screen, 48 h

In the case of `O=C1C(c2c(O)[nH]c3ccc(I)cc23)=Nc2ccccc21`, the TGI in the test with MOLT-4 leukemia was more than 100 µM; in the test with SF-268 CNS, 17.2 µM; with HS 578T breast it was more than 100 µM; in the test on 786-0 renal it was 4.39 µM; in the test with A498 renal it was 5.57 µM; with SF-295 CNS, more than 64.4 µM. Also, the TGI with SN12C renal was more than 74.1 µM; with NCI-H226 lung it was 6.94 µM; with COLO 205 colon, more than 100 µM; in the test with UACC-257 melanoma, more than 75.1 µM; in the test with HCC-2998 colon, more than 22.9 µM.

In the case of `N#Cc1c(O)c(C=O)c(=O)n2c1[nH]c1ccccc12`, the TGI in the test on MOLT-4 leukemia, in the test with SF-268 CNS, in the test on HS 578T breast, in the test on 786-0 renal, in the test on A498 renal and in the test on SF-295 CNS was more than 100 µM in each case. The TGI in the test with SN12C renal, in the test on NCI-H226 lung, in the test with COLO 205 colon, with UACC-257 melanoma and in the test on HCC-2998 colon was more than 100 µM throughout.

Regarding `CON(C(=O)OC(C)(C)C)c1ccccc1`, the TGI in the test with MOLT-4 leukemia, in the test with SF-268 CNS, in the test on HS 578T breast, in the test with 786-0 renal, in the test with A498 renal and with SF-295 CNS was more than 100 µM each time. For the same compound, the TGI with NCI-H226 lung, in the test on COLO 205 colon, with UACC-257 melanoma and in the test on HCC-2998 colon was more than 100 µM in each case.

As to `COc1cc(C2c3cc4c(cc3OC(NNc3ccccc3)C2C)OCO4)cc(OC)c1O` (configuration not stated), the TGI with MOLT-4 leukemia came out at 11.2 µM; in the test on SF-268 CNS, 27.4 µM; with HS 578T breast it was 12 µM; with 786-0 renal it was 15.6 µM; in the test on A498 renal, 16.3 µM; in the test on SF-295 CNS, 11.3 µM. Besides, the TGI in the test with SN12C renal is 4.63 µM; in the test on NCI-H226 lung, 14.6 µM; with COLO 205 colon it was 17.9 µM; in the test with UACC-257 melanoma, 20 µM; in the test on HCC-2998 colon, 2.87 µM.

Turning to `O=C1c2ccccc2C(=O)c2c(NCC3CO3)cccc21` (configuration not stated), the TGI was 14.7 µM in the test on MOLT-4 leukemia; 17.9 µM in the test with SF-268 CNS; more than 100 µM with HS 578T breast; more than 47.9 µM with 786-0 renal; more than 100 µM with A498 renal; more than 100 µM in the test on SF-295 CNS. Moreover, the TGI in the test with SN12C renal is 20.1 µM; in the test on NCI-H226 lung, more than 100 µM; in the test with COLO 205 colon, more than 100 µM; with UACC-257 melanoma it was more than 100 µM; with HCC-2998 colon, more than 100 µM.

In the case of `Cc1ccc(S(=O)(=O)NCCCSCCO)cc1`, the TGI with MOLT-4 leukemia, with SF-268 CNS, in the test with HS 578T breast, in the test on A498 renal, in the test on SF-295 CNS and in the test on SN12C renal was more than 100 µM throughout. The TGI with NCI-H226 lung, with COLO 205 colon, in the test with UACC-257 melanoma and with HCC-2998 colon was more than 100 µM in each case.

Turning to `O=C(CBr)NCCc1c[nH]c2ccccc12`, the TGI in the test on MOLT-4 leukemia worked out at 1.92 µM; in the test on SF-268 CNS, 7.59 µM; with HS 578T breast it was 42.2 µM; in the test on 786-0 renal, 2.74 µM; in the test with A498 renal it was 41.2 µM; with SF-295 CNS it was 28.6 µM. The TGI with SN12C renal was found to be 2.65 µM; in the test on NCI-H226 lung, 2.64 µM; in the test with COLO 205 colon, 3.19 µM; with UACC-257 melanoma it was 8.54 µM; in the test with HCC-2998 colon it was 24.9 µM.

Regarding `COC(=O)CN(CC1O[C@@H]2OC(C)(C)O[C@@H]2C1NC(C)=O)C(=O)OCc1ccccc1` (some centres not stated), the TGI in the test on MOLT-4 leukemia, in the test with SF-268 CNS, in the test with HS 578T breast, in the test on 786-0 renal, in the test on A498 renal and in the test with SF-295 CNS was more than 100 µM each time. Besides, the TGI in the test on SN12C renal, in the test with NCI-H226 lung, in the test on COLO 205 colon, with UACC-257 melanoma and with HCC-2998 colon was more than 100 µM each time.

Turning to `CCN(CCN(CC)C(=O)NC)C(=O)NC`, the TGI in the test on MOLT-4 leukemia, with SF-268 CNS, in the test on HS 578T breast, with 786-0 renal, in the test on A498 renal and in the test on SF-295 CNS was more than 100 µM in each case. The TGI with SN12C renal, with NCI-H226 lung, with COLO 205 colon, in the test on UACC-257 melanoma and with HCC-2998 colon was more than 100 µM in each case.

For `Cc1ccc(Cc2n[nH]c(=O)n2N2C(=O)c3ccccc3C2=O)cc1`, the TGI with MOLT-4 leukemia, in the test with HS 578T breast, in the test on 786-0 renal, in the test on A498 renal, in the test with SF-295 CNS and with SN12C renal was more than 100 µM throughout. Besides, the TGI in the test on NCI-H226 lung, in the test with COLO 205 colon, in the test on UACC-257 melanoma and in the test with HCC-2998 colon was more than 100 µM in each case.

`CC(=O)CC12NC(=O)N(C)N=C1N(C)C(=O)N(C)C2=O` (configuration not stated): the TGI with MOLT-4 leukemia, in the test with SF-268 CNS, in the test on HS 578T breast, with 786-0 renal, in the test on A498 renal and with SF-295 CNS was more than 100 µM in each case. Also, the TGI is more than 100 µM in the test on SN12C renal; more than 100 µM with NCI-H226 lung; more than 100 µM in the test with COLO 205 colon; 40.4 µM in the test on UACC-257 melanoma; more than 100 µM in the test on HCC-2998 colon.

Consider `O=C(NCCC1CN(S(=O)(=O)C(F)(F)F)c2ccccc21)OCc1ccccc1` (configuration not stated), for which the TGI in the test on MOLT-4 leukemia, in the test on SF-268 CNS, with HS 578T breast, in the test with 786-0 renal, with A498 renal and in the test on SF-295 CNS was more than 100 µM throughout. The TGI with COLO 205 colon, in the test on UACC-257 melanoma and with HCC-2998 colon was more than 100 µM each time.
